From patent publication US10913744B2, “LRRK2 inhibitors and methods of making and using the same” (Dana-Farber Cancer Institute, Inc., priority 2015, dated 2021)
Like-named read-outs stand apart in the source and are kept apart here.

Assays:
panel of 451 kinases = experiment: KinomeScan panel selectivity; assay type: binding; settings: 1 μM
Text: The kinase selectivity of Compound 18 was further evaluated by KinomeScan.

GSK3b = GSK3b (Homo sapiens (Human), UniProt P49841); experiment: Dundee profiling
Sequence of GSK3b (P49841 whole entry, looked up, species assumed): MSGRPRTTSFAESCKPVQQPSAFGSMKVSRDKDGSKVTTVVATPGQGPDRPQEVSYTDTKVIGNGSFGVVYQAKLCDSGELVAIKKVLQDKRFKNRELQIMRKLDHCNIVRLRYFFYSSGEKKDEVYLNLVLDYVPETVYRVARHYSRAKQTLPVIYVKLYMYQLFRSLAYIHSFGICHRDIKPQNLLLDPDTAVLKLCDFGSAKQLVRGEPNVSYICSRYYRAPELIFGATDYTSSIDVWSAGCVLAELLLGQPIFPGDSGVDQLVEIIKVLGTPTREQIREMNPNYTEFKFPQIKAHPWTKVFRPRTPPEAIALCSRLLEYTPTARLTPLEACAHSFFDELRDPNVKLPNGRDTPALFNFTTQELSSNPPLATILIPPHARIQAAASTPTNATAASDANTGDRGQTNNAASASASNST

MAPKAP-K2 = MAPKAP-K2 (Homo sapiens (Human), UniProt P49137); experiment: Dundee profiling
DDR2 = DDR2 (Homo sapiens (Human), UniProt Q16832); experiment: Dundee profiling
Sequence of DDR2 (Q16832 22-855, species assumed): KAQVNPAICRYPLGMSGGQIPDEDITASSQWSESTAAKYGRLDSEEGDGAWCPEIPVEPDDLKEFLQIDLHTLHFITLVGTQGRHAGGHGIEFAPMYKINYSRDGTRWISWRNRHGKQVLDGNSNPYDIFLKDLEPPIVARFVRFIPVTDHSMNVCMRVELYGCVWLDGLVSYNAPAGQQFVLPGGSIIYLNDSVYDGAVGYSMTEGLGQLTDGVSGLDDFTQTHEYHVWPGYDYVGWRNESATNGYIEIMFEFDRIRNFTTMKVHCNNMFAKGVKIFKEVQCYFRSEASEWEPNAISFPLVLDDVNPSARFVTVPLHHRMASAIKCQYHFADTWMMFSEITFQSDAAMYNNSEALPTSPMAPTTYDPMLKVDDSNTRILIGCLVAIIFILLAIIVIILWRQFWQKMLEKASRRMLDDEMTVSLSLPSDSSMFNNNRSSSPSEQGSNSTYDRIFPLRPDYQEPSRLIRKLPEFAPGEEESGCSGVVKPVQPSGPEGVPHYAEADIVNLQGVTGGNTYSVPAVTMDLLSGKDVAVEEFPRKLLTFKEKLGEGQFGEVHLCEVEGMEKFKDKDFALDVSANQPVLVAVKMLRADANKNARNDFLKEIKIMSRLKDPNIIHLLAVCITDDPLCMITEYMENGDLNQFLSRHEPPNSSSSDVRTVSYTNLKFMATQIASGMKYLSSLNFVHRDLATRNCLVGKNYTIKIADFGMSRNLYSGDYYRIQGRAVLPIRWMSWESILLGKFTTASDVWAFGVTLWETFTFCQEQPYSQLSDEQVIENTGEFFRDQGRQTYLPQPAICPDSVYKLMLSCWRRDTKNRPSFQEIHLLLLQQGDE

[1] = target: TYK2 (JH2domain-pseudokinase) (Homo sapiens (Human), UniProt P29597); experiment: KinomeScan; assay type: binding; settings: 1 uM
EPHA5 = EPHA5 (Homo sapiens (Human), UniProt P54756); experiment: KinomeScan; assay type: binding; settings: 1 uM
CSNK1G3 = CSNK1G3 (Homo sapiens (Human), UniProt Q9Y6M4); experiment: KinomeScan; assay type: binding; settings: 1 uM
ERK5 = ERK5 (Homo sapiens (Human), UniProt Q13164); experiment: Dundee profiling
PKA = PKA (Homo sapiens (Human), UniProt P17612); experiment: Dundee profiling
MARK4 = MARK4 (Homo sapiens (Human), UniProt Q96L34); experiment: KinomeScan; assay type: binding; settings: 1 uM
EGFR = EGFR (Homo sapiens (Human), UniProt P00533); experiment: KinomeScan; assay type: binding; settings: 1 uM
PDGFRA = PDGFRA (Homo sapiens (Human), UniProt P16234); experiment: Dundee profiling
TTBK2 = TTBK2 (Homo sapiens (Human), UniProt Q6IQ55); experiment: Dundee profiling
Sequence of TTBK2 (Q6IQ55 whole entry, species assumed): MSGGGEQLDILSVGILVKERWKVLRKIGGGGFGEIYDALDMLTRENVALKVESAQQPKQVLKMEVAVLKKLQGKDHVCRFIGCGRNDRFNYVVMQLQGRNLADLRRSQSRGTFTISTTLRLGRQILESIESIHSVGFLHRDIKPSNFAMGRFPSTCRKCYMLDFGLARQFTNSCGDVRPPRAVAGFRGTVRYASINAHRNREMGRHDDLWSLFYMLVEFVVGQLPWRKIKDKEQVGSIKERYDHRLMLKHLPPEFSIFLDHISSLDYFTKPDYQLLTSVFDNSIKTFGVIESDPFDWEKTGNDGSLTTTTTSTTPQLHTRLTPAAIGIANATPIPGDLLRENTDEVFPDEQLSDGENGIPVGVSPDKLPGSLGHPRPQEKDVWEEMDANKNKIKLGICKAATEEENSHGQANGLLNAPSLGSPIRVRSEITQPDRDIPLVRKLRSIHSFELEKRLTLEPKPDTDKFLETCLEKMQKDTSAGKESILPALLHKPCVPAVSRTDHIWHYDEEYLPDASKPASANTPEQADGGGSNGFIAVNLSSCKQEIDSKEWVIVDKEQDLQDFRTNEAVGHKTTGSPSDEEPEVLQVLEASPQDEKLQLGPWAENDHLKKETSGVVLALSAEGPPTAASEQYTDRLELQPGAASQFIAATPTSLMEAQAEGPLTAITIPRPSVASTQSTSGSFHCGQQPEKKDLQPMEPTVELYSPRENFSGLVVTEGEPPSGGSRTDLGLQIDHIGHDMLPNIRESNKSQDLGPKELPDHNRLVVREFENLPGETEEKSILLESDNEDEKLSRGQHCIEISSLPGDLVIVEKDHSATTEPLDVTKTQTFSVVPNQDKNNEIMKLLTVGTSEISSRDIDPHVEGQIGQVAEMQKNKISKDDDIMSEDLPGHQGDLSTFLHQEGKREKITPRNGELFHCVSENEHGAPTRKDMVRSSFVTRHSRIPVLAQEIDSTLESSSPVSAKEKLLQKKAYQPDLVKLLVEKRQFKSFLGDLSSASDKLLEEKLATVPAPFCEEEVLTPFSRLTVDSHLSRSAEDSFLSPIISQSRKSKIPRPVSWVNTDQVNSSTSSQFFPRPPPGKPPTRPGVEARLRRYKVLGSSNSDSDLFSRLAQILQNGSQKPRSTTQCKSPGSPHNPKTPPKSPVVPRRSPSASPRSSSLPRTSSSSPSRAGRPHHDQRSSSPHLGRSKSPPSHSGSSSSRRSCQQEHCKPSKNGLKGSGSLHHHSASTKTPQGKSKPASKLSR

PKBa = PKBa (Homo sapiens (Human), UniProt P31749); experiment: Dundee profiling
MKK1 = MKK1 (Homo sapiens (Human), UniProt Q02750); experiment: Dundee profiling
Sequence of MKK1 (Q02750 whole entry, species assumed): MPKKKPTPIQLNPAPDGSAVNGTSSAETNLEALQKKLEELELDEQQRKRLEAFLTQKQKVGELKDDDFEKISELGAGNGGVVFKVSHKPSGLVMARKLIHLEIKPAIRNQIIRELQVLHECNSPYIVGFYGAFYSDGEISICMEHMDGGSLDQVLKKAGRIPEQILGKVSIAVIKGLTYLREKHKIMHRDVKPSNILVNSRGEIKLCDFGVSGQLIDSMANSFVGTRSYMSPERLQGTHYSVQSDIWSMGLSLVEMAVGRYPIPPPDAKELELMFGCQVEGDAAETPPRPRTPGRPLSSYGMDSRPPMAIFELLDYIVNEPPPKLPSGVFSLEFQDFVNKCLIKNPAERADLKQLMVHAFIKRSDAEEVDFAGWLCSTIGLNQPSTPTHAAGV

PIP5K1C = PIP5K1C (Homo sapiens (Human), UniProt O60331); experiment: KinomeScan; assay type: binding; settings: 1 uM
EGFR (L858R, T790M) = EGFR (L858R, T790M) (Homo sapiens (Human), UniProt P00533, L858R/T790M); experiment: KinomeScan; assay type: binding; settings: 1 uM
PKCγ = PKCγ (Homo sapiens (Human), UniProt P05129); experiment: Dundee profiling
CDK9-Cyclin T1 = CDK9-Cyclin T1 (Homo sapiens (Human), UniProt P50750); experiment: Dundee profiling
PAK5 = PAK5 (Homo sapiens (Human), UniProt Q9P286); experiment: Dundee profiling
PIM1 = PIM1 (Homo sapiens (Human), UniProt P11309); experiment: Dundee profiling
SIK3 = SIK3 (Homo sapiens (Human), UniProt Q9Y2K2); experiment: Dundee profiling
HIPK1 = HIPK1 (Homo sapiens (Human), UniProt Q86Z02); experiment: Dundee profiling
Aurora B = Aurora B (Homo sapiens (Human), UniProt Q96GD4); experiment: Dundee profiling
Sequence of Aurora B (Q96GD4 whole entry): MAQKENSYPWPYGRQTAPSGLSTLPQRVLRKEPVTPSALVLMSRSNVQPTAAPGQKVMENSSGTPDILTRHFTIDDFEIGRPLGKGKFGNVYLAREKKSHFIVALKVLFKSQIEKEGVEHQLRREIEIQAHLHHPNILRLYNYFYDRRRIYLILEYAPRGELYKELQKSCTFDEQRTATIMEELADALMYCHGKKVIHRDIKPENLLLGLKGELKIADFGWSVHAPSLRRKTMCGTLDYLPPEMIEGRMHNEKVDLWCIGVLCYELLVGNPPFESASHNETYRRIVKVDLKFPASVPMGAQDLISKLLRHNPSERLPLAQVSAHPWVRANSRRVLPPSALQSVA

JNK2 = JNK2 (Homo sapiens (Human), UniProt P45984); experiment: KinomeScan; assay type: binding; settings: 1 uM
FLT3 (ITD) = experiment: KinomeScan; assay type: binding; settings: 1 uM
EPH-A2 = EPH-A2 (Homo sapiens (Human), UniProt P29317); experiment: Dundee profiling
PKCa = PKCa (Homo sapiens (Human), UniProt P17252); experiment: Dundee profiling
PRAK = PRAK (Homo sapiens (Human), UniProt Q8IW41); experiment: Dundee profiling
MAP4K5 = MAP4K5 (Homo sapiens (Human), UniProt Q9Y4K4); experiment: Dundee profiling
Sequence of MAP4K5 (Q9Y4K4 whole entry, looked up, species assumed): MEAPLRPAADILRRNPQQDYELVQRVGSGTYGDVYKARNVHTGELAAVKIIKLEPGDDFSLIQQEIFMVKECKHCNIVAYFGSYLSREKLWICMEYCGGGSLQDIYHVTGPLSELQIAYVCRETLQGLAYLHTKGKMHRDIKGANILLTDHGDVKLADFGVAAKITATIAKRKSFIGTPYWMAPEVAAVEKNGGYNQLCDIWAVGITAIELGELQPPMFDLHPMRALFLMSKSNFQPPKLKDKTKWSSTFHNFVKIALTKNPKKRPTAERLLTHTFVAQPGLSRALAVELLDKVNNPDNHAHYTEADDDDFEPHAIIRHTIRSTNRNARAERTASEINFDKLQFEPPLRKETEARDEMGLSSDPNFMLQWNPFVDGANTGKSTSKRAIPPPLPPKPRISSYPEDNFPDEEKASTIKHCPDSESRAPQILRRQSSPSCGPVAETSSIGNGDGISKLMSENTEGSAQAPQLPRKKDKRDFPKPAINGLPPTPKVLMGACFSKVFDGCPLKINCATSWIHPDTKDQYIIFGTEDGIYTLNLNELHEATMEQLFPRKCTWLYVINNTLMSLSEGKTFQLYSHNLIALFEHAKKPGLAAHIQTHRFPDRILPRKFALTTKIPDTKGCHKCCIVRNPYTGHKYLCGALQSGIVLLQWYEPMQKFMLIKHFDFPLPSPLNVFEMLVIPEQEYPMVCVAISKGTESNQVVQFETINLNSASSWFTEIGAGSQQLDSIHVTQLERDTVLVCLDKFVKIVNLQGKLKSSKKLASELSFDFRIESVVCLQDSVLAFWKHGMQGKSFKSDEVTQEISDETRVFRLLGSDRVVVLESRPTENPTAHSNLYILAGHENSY

[2] = target: JAK2 (JH1domain-catalytic) (Homo sapiens (Human), UniProt O60674); experiment: KinomeScan; assay type: binding; settings: 1 uM
Sequence of JAK2 (JH1domain-catalytic) (O60674 849-1124): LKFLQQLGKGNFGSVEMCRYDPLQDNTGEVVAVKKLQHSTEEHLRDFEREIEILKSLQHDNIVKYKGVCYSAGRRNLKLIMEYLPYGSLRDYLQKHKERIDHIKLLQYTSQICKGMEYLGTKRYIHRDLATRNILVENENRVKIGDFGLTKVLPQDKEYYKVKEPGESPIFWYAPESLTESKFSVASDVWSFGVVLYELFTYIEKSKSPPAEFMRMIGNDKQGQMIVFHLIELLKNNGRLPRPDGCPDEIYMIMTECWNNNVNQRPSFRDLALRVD

[3] = target: EGFR (L747-E749del, A750P) (Homo sapiens (Human), UniProt P00533, A750P/DEL747-749); experiment: KinomeScan; assay type: binding; settings: 1 uM
TLK1 = TLK1 (Homo sapiens (Human), UniProt Q9UKI8); experiment: Dundee profiling
PKMYT1 = PKMYT1 (Homo sapiens (Human), UniProt Q99640); experiment: KinomeScan; assay type: binding; settings: 1 uM
EGFR (E746-A750del) = EGFR (E746-A750del) (Homo sapiens (Human), UniProt P00533, DEL746-750); experiment: KinomeScan; assay type: binding; settings: 1 uM
[4] = read-out: percent remaining enzymatic activity, I1, 1 μM
[5] = read-out: percent remaining enzymatic activity, I10
[6] = read-out: percent remaining enzymatic activity

In the case of `CNc1nc(Nc2ccc(C(=O)N3CCOCC3)cc2OC)nc2[nH]cc(Cl)c12` [Compound 18, (4-((5-chloro-4-(methylamino)-7H-pyrrolo[2,3-d]pyrimidin-2-yl)amino)-3-methoxyphenyl)(morpholino)methanone], the “kinase selectivity, interactions detected” value (panel of 451 kinases) is reported as “no interactions detected with kinases other than LRRK2[G2019S] with the exception of TTK and RPS6KA4”, the remaining activity at 1 µM (GSK3b; [4]) is reported as 82% and the remaining activity at 1 µM (GSK3b; [5]) is reported as 97%. It also gave a remaining activity at 1 µM (MAPKAP-K2; [4]) of 86%, a remaining activity at 1 µM (MAPKAP-K2; [5]) of 40% and a remaining activity at 1 µM (DDR2; [4]) of 98%. It also gave a remaining activity at 1 µM (DDR2; [5]) of 93%, a KinomeScan value [1] of 100 and a KinomeScan value (EPHA5) of 98. It also gave a KinomeScan value (CSNK1G3) of 100, a remaining activity at 1 µM (ERK5; [4]) of 76% and a remaining activity at 1 µM (ERK5; [5]) of 52%. The remaining activity at 1 µM (PKA; [4]) was 99%, the remaining activity at 1 µM (PKA; [5]) was 101% and the KinomeScan value (MARK4) was 82. It also gave a KinomeScan value (EGFR) of 93, a remaining activity at 1 µM (PDGFRA; [4]) of 109% and a remaining activity at 1 µM (PDGFRA; [5]) of 89%. The “percent remaining enzymatic activity” value (TTBK2; I10) was 90%, the remaining activity at 1 µM (TTBK2; [6]) was 105% and the remaining activity at 1 µM (PKBa; [4]) was 101%. It also gave a remaining activity at 1 µM (PKBa; [5]) of 105%, a remaining activity at 1 µM (MKK1; [4]) of 91% and a remaining activity at 1 µM (MKK1; [5]) of 56%. The KinomeScan value (PIP5K1C) was 100, the KinomeScan value (EGFR (L858R, T790M)) was 100 and the remaining activity at 1 µM (PKCγ; [4]) was 113%. For the same compound, the remaining activity at 1 µM (PKCγ; [5]) was 109%, the remaining activity at 1 µM (CDK9-Cyclin T1; [4]) was 105% and the remaining activity at 1 µM (CDK9-Cyclin T1; [5]) was 91%. The remaining activity at 1 µM (PAK5; [4]) was 89%, the remaining activity at 1 µM (PAK5; [5]) was 70% and the remaining activity at 1 µM (PIM1; [4]) was 95%. For the same compound, the remaining activity at 1 µM (PIM1; [5]) was 88%, the “percent remaining enzymatic activity” value (SIK3; I10) was 96% and the remaining activity at 1 µM (SIK3; [6]) was 107%. For the same compound, the remaining activity at 1 µM (HIPK1; [4]) was 95%, the remaining activity at 1 µM (HIPK1; [5]) was 44% and the remaining activity at 1 µM (Aurora B; [4]) was 97%. For the same compound, the remaining activity at 1 µM (Aurora B; [5]) was 90%, the KinomeScan value (JNK2) was 78 and the KinomeScan value (FLT3 (ITD)) was 94. For the same compound, the remaining activity at 1 µM (EPH-A2; [4]) was 104%, the remaining activity at 1 µM (EPH-A2; [5]) was 101% and the remaining activity at 1 µM (PKCa; [4]) was 102%. It also gave a remaining activity at 1 µM (PKCa; [5]) of 100%, a remaining activity at 1 µM (PRAK; [4]) of 43% and a remaining activity at 1 µM (PRAK; [5]) of 6%. For the same compound, the remaining activity at 1 µM (MAP4K5; [4]) was 110%, the remaining activity at 1 µM (MAP4K5; [5]) was 92% and the KinomeScan value [2] was 100. It also gave a KinomeScan value [3] of 81, a remaining activity at 1 µM (TLK1; [4]) of 106% and a remaining activity at 1 µM (TLK1; [5]) of 105%. It also gave a KinomeScan value (PKMYT1) of 100 and a KinomeScan value (EGFR (E746-A750del)) of 100.
